Experiment: excess molar enthalpy (molar enthalpy of mixing); xn = mol fraction of the nth substance listed
Settings: 101 kPa, Liquid, Calvet calorimetry

[Ca] [calcium] + [Ag]
Settings | excess molar enthalpy [kcal/mol]
1131 K, x1 = 0.7564 | -3.38
1131 K, x1 = 0.8188 | -2.59
1131 K, x1 = 0.8703 | -1.83
1131 K, x1 = 0.8808 | -1.66
1131 K, x1 = 0.9156 | -1.19
1131 K, x1 = 0.9224 | -1.1
1131 K, x1 = 0.9626 | -0.537
1131 K, x1 = 0.9647 | -0.496
1254 K, x1 = 0.0642 | -1.32
1254 K, x1 = 0.0984 | -1.7
1254 K, x1 = 0.1103 | -1.83
1254 K, x1 = 0.1123 | -2.28
1254 K, x1 = 0.1203 | -2.04
1254 K, x1 = 0.1288 | -2.6
1254 K, x1 = 0.1327 | -2.32
1254 K, x1 = 0.1487 | -2.66
1254 K, x1 = 0.1699 | -3.08
1254 K, x1 = 0.1893 | -3.43
1254 K, x1 = 0.1897 | -3.31
1254 K, x1 = 0.2073 | -3.25
1254 K, x1 = 0.2145 | -3.87
1254 K, x1 = 0.2393 | -3.77
1254 K, x1 = 0.2405 | -4.25
1254 K, x1 = 0.249 | -4.69
1254 K, x1 = 0.2673 | -4.17
1254 K, x1 = 0.2711 | -4.66
1254 K, x1 = 0.2999 | -4.55
1254 K, x1 = 0.3115 | -5.08
1254 K, x1 = 0.3416 | -4.95
1254 K, x1 = 0.3685 | -5.53
1254 K, x1 = 0.3962 | -5.28
1254 K, x1 = 0.4438 | -5.82
1254 K, x1 = 0.4634 | -5.88
1254 K, x1 = 0.4708 | -5.44
1254 K, x1 = 0.5175 | -5.79
1254 K, x1 = 0.5477 | -5.3
1254 K, x1 = 0.5562 | -5.62
1254 K, x1 = 0.6306 | -4.79
1254 K, x1 = 0.6313 | -5
1254 K, x1 = 0.6768 | -4.7
1254 K, x1 = 0.7157 | -4.28
1254 K, x1 = 0.7353 | -3.76
1254 K, x1 = 0.8259 | -2.59
1254 K, x1 = 0.9396 | -0.962

Reference: the NIST ThermoML archive (doi:10.1016/j.jct.2014.05.021)
